System: Lactobacillus paracasei
Test: Effect of Lysozyme on Lactobacillus in fermentation medium (liquefied corn mash), bacterial plating and counting
Type: cell-based
Details: 0-100-300-1000 mg/L Lysozyme in corn mash pH 5.05, 32° C., 0, 24 and 48 hours (FIG. 4)
Description: Milled corn was liquefied in an aqueous slurry (pH 5.6) using 50 NU/g DS Bacterial Alpha-Amylase A by heating until a temperature of 85° C. (approx 20 minutes) was reached. Thereafter the slurry is cooked for another 60 minutes. A sample of the liquefied corn mash (CM) was pH-adjusted to 5.05 with H2SO4. After pH adjustment, the mash was split up into approximately 59 of CM and added to 36 15 mL plastic centrifuge tubes. Various amounts of L. paracasei were then added to give an initial cell count of about 1-3×10^6/mL. Different dosages (0-100-300-1000 mg/L) of Lysozyme (Sigma) were also added to each tube. The tubes were then thoroughly vortexed and placed in a rack in 32° C. water bath. Tubes were pulled after 0, 24, and 48 hours for bacterial plating and counting. No additional Lysozyme was added to any of the tubes after time zero.

Lysozyme: Lysozyme from hen egg white, cat # L-7651, purchased from Sigma
Antibacterial effect on Lactobacillus (growth inhibition): effective inhibiting growth of Lactobacillus paracasei
